Results reported in ChEMBL document CHEMBL1201862, “PubChem BioAssay data set” (2004).
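Dose response: 5 concentrations. Exposure: 48 h. Format: 96-well plates. Endpoint: linear interpolation; highest concentration if not reached. Abbreviation: GI50, concentration required for 50% inhibition of growth.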 The source made the active and inactive calls. No stated cut-off is given here; in the data, active = GI50 up to about 1.1 µM and inactive = higher.

How the values were obtained:
Experiment in all cases: NCI tumour cell line growth inhibition, 48 h
786-0 = system: 786-0
HCC 2998 = system: HCC 2998
HCT-116 = system: HCT-116
HCT-15 = system: HCT-15
HT-29 = system: HT-29
Hs-578T = system: Hs-578T
IGROV-1 = system: IGROV-1
MDA-MB-231 = system: MDA-MB-231
MDA-MB-435 = system: MDA-MB-435
MOLT-4 = system: MOLT-4
NCI-H522 = system: NCI-H522
OVCAR-3 = system: OVCAR-3
SK-MEL-5 = system: SK-MEL-5
SNB-19 = system: SNB-19
SR = system: SR
U-251 = system: U-251
UACC-62 = system: UACC-62
MDA-N = system: MDA-N

SMILES | GI50 (786-0) | GI50 (HCC 2998) | GI50 (HCT-116) | GI50 (HCT-15) [µM] | GI50 (HT-29) | GI50 (Hs-578T) | GI50 (IGROV-1) | GI50 (MDA-MB-231) | GI50 (MDA-MB-435) | GI50 (MOLT-4) | GI50 (NCI-H522) | GI50 (OVCAR-3) | GI50 (SK-MEL-5) | GI50 (SNB-19) | GI50 (SR) | GI50 (U-251) | GI50 (UACC-62) | GI50 (MDA-N)
CCOC(=O)c1c(Br)c(-c2ccc(OC)cc2)c(Br)n1C | 21.6 µM (inactive) | > 10 µM (inactive) | 6.56 µM (inactive) | 8.61 | 12.7 µM (inactive) | 11.6 µM (inactive) | 22.2 µM (inactive) | 17 µM (inactive) | 2.37 µM (inactive) | 8.57 µM (inactive) | 6.62 µM (inactive) | 17.1 µM (inactive) | 10.6 µM (inactive) | 34.9 µM (inactive) | 2.23 µM (inactive) | 33.2 µM (inactive) | 5.09 µM (inactive) | –
C=CCC1(Sc2ccccn2)Sc2ccc3ccccc3c2-c2c(ccc3ccccc23)S1 | > 100 µM (inactive) | > 100 µM (inactive) | > 100 µM (inactive) | > 100 | > 100 µM (inactive) | > 100 µM (inactive) | > 100 µM (inactive) | > 100 µM (inactive) | > 100 µM (inactive) | > 100 µM (inactive) | > 100 µM (inactive) | > 100 µM (inactive) | > 100 µM (inactive) | > 100 µM (inactive) | > 100 µM (inactive) | > 100 µM (inactive) | > 100 µM (inactive) | –
O=c1[nH]c2cc(C(F)(F)F)ccc2nc1Cc1ccccc1 | 36.6 µM (inactive) | > 100 µM (inactive) | 71.6 µM (inactive) | > 100 | > 100 µM (inactive) | 34.9 µM (inactive) | 46.7 µM (inactive) | 30.8 µM (inactive) | > 100 µM (inactive) | > 100 µM (inactive) | – | – | > 100 µM (inactive) | 66.2 µM (inactive) | 36.6 µM (inactive) | 76 µM (inactive) | > 100 µM (inactive) | –
CCOC(=O)C1=C(C(=O)c2ccc(C)cc2)C(c2cccc([N+](=O)[O-])c2)C(C(=O)c2ccc(C)cc2)=C(C(=O)OCC)N1 | 16.2 µM (inactive) | – | 6.75 µM (inactive) | 0.853 | 13 µM (inactive) | 22 µM (inactive) | 16.2 µM (inactive) | 13.9 µM (inactive) | 16 µM (inactive) | 28.6 µM (inactive) | 15.6 µM (inactive) | 15.5 µM (inactive) | 17.8 µM (inactive) | 6.08 µM (inactive) | 2.93 µM (inactive) | 13.1 µM (inactive) | 18.2 µM (inactive) | –
NC1=CN(Cc2ccccc2)C2=N/C(=C\c3ccccc3)C(=O)N12 | > 100 µM (inactive) | > 100 µM (inactive) | > 100 µM (inactive) | > 100 | > 100 µM (inactive) | > 100 µM (inactive) | > 100 µM (inactive) | > 100 µM (inactive) | 50.1 µM (inactive) | 97.3 µM (inactive) | 51.3 µM (inactive) | > 100 µM (inactive) | 66.5 µM (inactive) | > 100 µM (inactive) | – | > 100 µM (inactive) | > 100 µM (inactive) | –
NC(=O)N=C(NCc1ccccc1)NCc1ccccc1 | > 100 µM (inactive) | > 100 µM (inactive) | > 100 µM (inactive) | > 100 | > 100 µM (inactive) | – | > 100 µM (inactive) | – | – | – | > 100 µM (inactive) | > 100 µM (inactive) | > 100 µM (inactive) | > 100 µM (inactive) | – | > 100 µM (inactive) | > 100 µM (inactive) | –
COc1ccc(/N=N/c2c(C)c(C#N)c(=S)n(C3OC(COC(C)=O)C(OC(C)=O)C(OC(C)=O)C3OC(C)=O)c2-c2ccccc2)cc1 (stereo unspecified) | 3.12 µM (inactive) | 23.4 µM (inactive) | 4.32 µM (inactive) | 14.9 | 5.94 µM (inactive) | – | – | 6.04 µM (inactive) | 10.3 µM (inactive) | 3.08 µM (inactive) | – | 13.9 µM (inactive) | – | 11 µM (inactive) | 4.07 µM (inactive) | 10.7 µM (inactive) | – | 9.1 µM (inactive)
CCCCC/C(C=O)=C\c1ccccc1 | > 100 µM (inactive) | > 100 µM (inactive) | > 100 µM (inactive) | > 100 | > 100 µM (inactive) | > 100 µM (inactive) | > 100 µM (inactive) | > 100 µM (inactive) | > 100 µM (inactive) | 65.8 µM (inactive) | – | – | > 100 µM (inactive) | > 100 µM (inactive) | > 100 µM (inactive) | > 100 µM (inactive) | > 100 µM (inactive) | –
COc1ccc2c(c1)C1Oc3ccccc3CC1(O)CO2 (stereo unspecified) | > 100 µM (inactive) | > 100 µM (inactive) | > 100 µM (inactive) | > 100 | > 100 µM (inactive) | – | > 100 µM (inactive) | > 100 µM (inactive) | > 100 µM (inactive) | > 100 µM (inactive) | > 100 µM (inactive) | > 100 µM (inactive) | > 100 µM (inactive) | – | > 100 µM (inactive) | > 100 µM (inactive) | > 100 µM (inactive) | > 100 µM (inactive)
CS/C(=N\S(=O)(=O)c1ccc(Cl)cc1)NCCCCN/C(=N/S(=O)(=O)c1ccc(Cl)cc1)SC | 44.5 µM (inactive) | > 100 µM (inactive) | > 100 µM (inactive) | > 100 | > 100 µM (inactive) | – | 83 µM (inactive) | > 100 µM (inactive) | > 100 µM (inactive) | > 10 µM (inactive) | – | > 100 µM (inactive) | – | > 100 µM (inactive) | > 100 µM (inactive) | 69.5 µM (inactive) | > 100 µM (inactive) | > 100 µM (inactive)
CS/C(=N\C#N)NC1CC(n2cc(C)c(=O)[nH]c2=O)OC1CO (stereo unspecified) | > 100 µM (inactive) | > 100 µM (inactive) | > 100 µM (inactive) | > 100 | > 100 µM (inactive) | – | > 100 µM (inactive) | > 100 µM (inactive) | > 100 µM (inactive) | > 100 µM (inactive) | > 100 µM (inactive) | > 100 µM (inactive) | > 100 µM (inactive) | > 100 µM (inactive) | – | > 100 µM (inactive) | > 100 µM (inactive) | > 100 µM (inactive)
O=C([O-])C(O)C(O)C(O)C(O)C(=O)O.[K+] (stereo unspecified) | > 100 µM (inactive) | > 100 µM (inactive) | > 100 µM (inactive) | > 100 | > 100 µM (inactive) | – | > 100 µM (inactive) | > 100 µM (inactive) | > 100 µM (inactive) | > 100 µM (inactive) | > 100 µM (inactive) | > 100 µM (inactive) | > 100 µM (inactive) | > 100 µM (inactive) | > 100 µM (inactive) | > 100 µM (inactive) | > 100 µM (inactive) | > 100 µM (inactive)
C[N+]1(C)C(c2ccccc2)C(=O)O[B@-]1(F)c1ccccc1 (stereo partly specified) | > 100 µM (inactive) | > 100 µM (inactive) | > 100 µM (inactive) | > 100 | > 100 µM (inactive) | – | > 100 µM (inactive) | > 100 µM (inactive) | > 100 µM (inactive) | > 100 µM (inactive) | – | > 100 µM (inactive) | > 100 µM (inactive) | > 100 µM (inactive) | > 100 µM (inactive) | > 100 µM (inactive) | > 100 µM (inactive) | > 100 µM (inactive)
